Source: ChEMBL document CHEMBL3507680, “University of Dundee, Gates Library screen for HepG2 cell viability”

Assay: Human HepG2 cell viability assay in 384 well format
Type: toxicity, cell-based
Parameters: dose 125 nL, time 70.5 hour; concentration not given beside the values
Settings: HepG2 cells, read-out: Inhibition

| Structure (SMILES) | cytotoxicity at 70.5 h [%] |
| --- | --- |
| NC[C@H]1CC[C@H](C(NC(=O)c2cccc(F)c2)c2ccccn2)CC1 (some centres undefined) | 41 |
| CCCN(Cc1ccccc1O)C(=O)Nc1cnn(CCOC)c1 | -12.8 |
| Cc1cc(C)c(CNC(=O)C2COc3ccccc3C2)c(=O)[nH]1 (centres undefined) | 0.458 |
| c1csc(NCc2n[nH]c3c2CCN(CC2CC2)C3)n1 | -14.2 |
| COc1cc(OC)c(CNC(=O)NCC(=O)N2CCCC2)c(OC)c1 | -6.53 |
| Cc1cnn(CC(C)NCC(=O)NC2CCOCC2)c1 (centres undefined) | 18.5 |
| O=C(c1csc(-c2ncccn2)n1)N1CCN2CCCCC2C1 (centres undefined) | -5.52 |
| CN(C)c1cc(CNC(=O)c2ccc(O)nc2)ccn1 | 14.5 |
| Cc1noc(C)c1CN1CCO[C@H]2CN(C3CCOCC3)C[C@H]21 | 21.3 |
| Cc1cc(C(F)(F)F)nc(CNC(=O)CCCN2CCCCC2)n1 | -2.62 |
| COc1ccc(OCCCNC(=O)NCc2csc(C)n2)cc1 | -7.03 |
| NC(=O)CSc1nccc(-c2ccc3c(c2)OCO3)n1 | -2.27 |
| Cc1ccc2cccc(C(=O)NCCOCC3CC3)c2n1 | -0.418 |
| Cc1oc(-c2ccsc2)nc1CC(=O)NCC(C)(C)CN(C)C | -9.09 |
| c1cc(NCc2ccncc2)nc(C2CCCNC2)c1 (centres undefined) | -1.2 |
| Cc1ncccc1OC1(C(=O)NCCc2ccccn2)CCNCC1 | 13.7 |
| CCn1ncc2c(C(F)(F)F)cc(-c3cnn(C)c3)nc21 | -11.4 |
| Fc1ccc(Oc2ccc(CNCC3CNc4ccnn4C3)cn2)cc1 (centres undefined) | -12.4 |
| COCCS(=O)(=O)NCC(C)c1cccc(C)c1 (centres undefined) | -3.93 |
| CSCC(=O)NC1CC(=O)N(CCc2ccccc2)C1 (centres undefined) | -10.9 |
| O=C1O[C@@H]2CN(c3ccccn3)C[C@@H]2N1CCCc1ccc(F)cc1 | -14.3 |
| CN1CCCN(C(=O)c2ccn3ccnc3c2)CC1 | 6.21 |
| CC(C)N1CCOCC2(CCCN(C(=O)c3cncn3C)C2)C1 (centres undefined) | -8.05 |

| Structure (SMILES) | cytotoxicity at 70.5 h [%] |
| --- | --- |
| CNC(=O)[C@@]12CCO[C@@H]1CCN(S(=O)(=O)c1ccccc1)C2 | -6.28 |
| CC(C)Cc1cn(C2CCN(C(C)CCn3cccn3)CC2)nn1 (centres undefined) | -11.6 |
| CN(C)CC1(O)CCN(S(=O)(=O)c2cccc(F)c2)C1 (centres undefined) | -4.11 |
| COc1ccccc1CC1CCCN(CCN2CCOC2=O)C1 (centres undefined) | -7.17 |
| CNC(=O)CN1CCCC12CCN(C(=O)c1ccccc1F)CC2 | -10.4 |
| COc1cccc(CC(=O)N2CCN(C)c3ncccc3C2)c1 | 1.87 |
| O=C1NC[C@@]2(C(=O)O)CN(Cc3cccc(C(F)(F)F)c3)C[C@@H]12 | 7.18 |
| CN(C)C(=O)Cc1nc(CN2CCCCC2Cn2cncn2)cs1 (centres undefined) | 23.2 |
| CCC1CN(C(=O)c2cccnc2O)CCC(=O)N1Cc1ccccc1 (centres undefined) | -3.15 |
| CCC1c2cccn2CCN1C(=O)c1cc(OC)nc(OC)n1 (centres undefined) | 44.1 |
| CN(C)CC(=O)N1CCC2(CC1)COc1ccccc1S(=O)(=O)N(C)C2 | 0.316 |
| Cn1cccc1C(=O)N1C[C@H](OCC2CCOCC2)[C@H]2COC[C@H]21 | -10.8 |
| O=c1ccc2c([nH]1)CCC(NCc1ccc(F)cc1)C2 (centres undefined) | -5.16 |
| Cc1nn(C)c(C)c1C1COCCN1C(=O)c1cnc(N)c(Cl)c1 (centres undefined) | -3.52 |
| CO[C@H]1CC[C@H]2[C@H]1OCCN2C(=O)c1ccc(C)nc1 | -2.48 |
| COc1ncccc1NC(=O)N1CCC(CN2CCOCC2)CC1 | -6.27 |
| CCN(CC)C(=O)c1cc(-c2cccc(Cl)c2)no1 | -5.28 |
| COCCN(C)C(C(=O)O)c1ccc(F)c(Cl)c1 (centres undefined) | 30.8 |
| Cc1oncc1C(=O)N1CC[C@H]2[C@H](C[C@@H](CN3CCCC3)N2C)C1 | -2.32 |
| c1csc(CN2CCc3nc(N4CCOCC4)nc(NC4CC4)c3C2)n1 | 17 |
| CC1CN(CCOc2cccc(C#N)c2)CCN1Cc1nccn1C (centres undefined) | -3.4 |
| COCC(=O)N1CC[C@@H]2CN(Cc3cccnc3)S(=O)(=O)[C@@H]2CC1 | -2.46 |
| N#Cc1ccnc(N2CCN(CC(O)c3cccc(F)c3)CC2)c1 (centres undefined) | -7.6 |

| Structure (SMILES) | cytotoxicity at 70.5 h [%] |
| --- | --- |
| CC1CN(CC(=O)NC2CCOCC2)CCN1Cc1nccn1C (centres undefined) | -0.539 |
| O=C(c1n[nH]c2c1CN(C1CCOC1)CC2)N1CCCC1 (centres undefined) | -1.72 |
| c1cnn(Cc2cn3c(n2)CN(Cc2nccs2)CC3)c1 | -3.15 |
| CCOc1ccc(C(=O)N(Cc2cnn(C)c2)C(C)C)cc1OCC | -3.25 |
| CC(=O)Nc1c(C)cnn1Cc1cc(F)ccc1F | -2.07 |
| Cc1csc(CN2C[C@H](NC(=O)C3CCOCC3)[C@@H](C(C)C)C2)n1 | -10.9 |
| Cc1ncc(CNCC2CCCN2c2cccnn2)s1 (centres undefined) | -19.7 |
| CN(Cc1ccon1)C(=O)C1CC(=O)N(Cc2ccncc2)C1 (centres undefined) | -6.33 |
| CN1CCO[C@@H]2CN(C(=O)Cc3cccs3)CC[C@@H]2C1 | -2.05 |
| CN(C)C(=O)c1cn2cc(-c3cccc(Cl)c3)n(CC3CC3)c(=O)c2n1 | -5.52 |
| COCCOCC(=O)Nc1cc(C)ccc1F | 4.73 |
| CC(C)CN1CCC(NC(=O)c2ccc(F)cc2I)CC1 | 11.3 |
| O=C1CN(c2ccc(C(=O)N3CCc4ccccc43)cn2)CCN1 | -6.79 |
| Cc1csc2c(N3CCNC(C(=O)NCc4cccnc4)C3)ncnc12 (centres undefined) | 18.9 |
| CC(C)Oc1ccc(CNC(=O)CC(F)(F)F)cc1F | -18 |
| Cc1cc(-c2cnc(C(C)C)nc2CN(C)C(=O)c2ccccn2)on1 | -6.43 |
| CS(=O)(=O)NCCc1cccc2cccnc12 | 25.3 |
| COc1ccc(S(=O)(=O)C(C)C(=O)NCCOc2cccc(C)c2)cc1 (centres undefined) | -3.65 |
| Cc1cnc(CCNc2cccc(CC3CCCNC3)n2)s1 (centres undefined) | 0.312 |
| CCOC(=O)CC1CCCCN1C(=O)CCc1cc(Cl)no1 (centres undefined) | -1.88 |
| Cc1ccccc1-c1noc(CN2CCn3c(nnc3C3CC3)C2)n1 | 20.5 |
| CC(Nc1ccn(CCS(C)(=O)=O)n1)c1ccc(C#N)cc1 (centres undefined) | -1.96 |
| COCCN(C)CC(=O)N1C[C@H]2CC[C@@H]1CN(C(=O)c1ccncc1)C2 | -10.1 |

| Structure (SMILES) | cytotoxicity at 70.5 h [%] |
| --- | --- |
| O=C(c1ccncc1)N1CCOC2(COCCN(c3cccnc3)C2)C1 (centres undefined) | -8.51 |
| Cc1cnc(C)c(N2CC[C@H](N3CCOCC3)[C@H](CCCO)C2)n1 | -9.88 |
| Cc1noc(C)c1CN1CC[C@H](OCC2CC2)[C@@H](Cc2ccccc2)C1 | 3.46 |
| Cc1cnn(CCC(=O)N2CCN(c3ncccc3Cl)CC2)c1 | -0.781 |
| O=C(CCn1cncn1)NCC1CCCC1 | -6.57 |
| Cc1ccoc1C(=O)N1C[C@H](OCc2cccnc2)[C@H]2OCCC[C@H]21 | -15.2 |
| CNc1cc(C)nc(C2COCCN2CCc2ccccc2)n1 (centres undefined) | -1.48 |
| CC(C)C(=O)N1CCC(C)(c2cc[nH]n2)CC1 | -0.608 |
| O=C(c1cc2c([nH]c1=O)CCC2)N1CCCCCC1c1ccncc1 (centres undefined) | -6.24 |
| O=C(Nc1ccc(CCN2CCC(O)CC2)cc1)C1CCCOC1 (centres undefined) | -3.52 |
| CC(=O)c1cn(CC(=O)NC(C(=O)O)C(C)C)c2ccccc12 (centres undefined) | 0.278 |
| COc1ccccc1CNC(=O)Cn1ncc2c1c(C)nn2C | 0.128 |
| Cn1cnnc1C1CCCN(C(=O)CCc2ccc3c(c2)OCO3)C1 (centres undefined) | 15.2 |
| Cc1cccc(CN2C(=O)CC[C@@H]3[C@H]2CCN3C(=O)c2ccsc2)n1 | -12.3 |
| Cc1ccc(N2CCCC(N3CCC(CO)CC3)C2=O)cc1 (centres undefined) | 12.9 |
| O=S(=O)(c1cc(F)ccc1F)N1CCCC1c1ccco1 (centres undefined) | -6.01 |
| CNC(=O)CN(C)c1nc(-c2ccncc2)nc2c1CCN(C(C)=O)C2 | -6.78 |
| CCc1oc(C(=O)NCCSc2ncn[nH]2)cc1CN1CCCC1 | -9.51 |
| N#Cc1cccnc1N1CCC(OCCc2ccccc2)CC1 | -9.51 |
| CCc1nc(CN2CCN(C(=O)c3csc(C(C)C)n3)CC2)no1 | 33.2 |
| Cc1cc(-n2cnnn2)n2ncnc2n1 | 3.71 |
| Cc1cccc(N2CCCN=C2NC(=O)c2cccc(Cl)c2)c1 | -9.98 |
| CN1CCCN(C(=O)c2nc3c(s2)CCCN3CC2CC2)CC1 | -1.89 |

| Structure (SMILES) | cytotoxicity at 70.5 h [%] |
| --- | --- |
| COCC1CN(C(=O)Cc2ccsc2)Cc2c1cnn2C (centres undefined) | 25.8 |
| Cc1ccccc1OCC(O)C(=O)N1CCC2(CC1)CN(C)C(=O)O2 (centres undefined) | -4.24 |
| Cc1cc(C)n(CC2CCCN2Cc2ccc(F)cc2C#N)n1 (centres undefined) | -4.46 |
| CNc1nccnc1C1CN(C(=O)c2c[nH]cn2)CCO1 (centres undefined) | 3.73 |
| COCCN1CC(C(=O)N(C)Cc2cc(-c3cccnc3)no2)CC1=O (centres undefined) | -11.9 |
| CS(=O)(=O)c1ccc(NC(=O)NCc2ccc3c(c2)CCC3)cn1 | -2.56 |
| CC(C)(CNC(=O)Nc1nccs1)N1CCOCC1 | -6.21 |
| COC(=O)C(c1cc(F)ccc1F)N(C)C(=O)c1csnn1 (centres undefined) | 7.84 |
| Cc1nc(CN2CCCC(NCc3ccc4ccccc4c3)C2)no1 (centres undefined) | -6.48 |
| CCc1nccn1-c1cncc(C2CCCN2Cc2ccc(F)cc2)n1 (centres undefined) | 36.1 |
| CN(CC(N)=O)C(=O)c1cn(-c2ccc(Br)cc2)cn1 | 23.1 |
| CCCN(CCS(C)(=O)=O)C1CCc2ccccc2C1 (centres undefined) | -0.462 |
| Cc1ccoc1C(=O)NCCOc1ccc(C(F)(F)F)cn1 | 18.3 |
| O=C1N(Cc2ccccn2)C[C@H]2CN(C3CCOCC3)CCN12 | -3.19 |
| O=C(C[S+]([O-])Cc1csc(C2CCCC2)n1)Nc1ccccc1 (centres undefined) | -17.5 |
| Cc1ccccc1CNCC(O)c1ccc(OC(C)C)cc1 (centres undefined) | -0.135 |
| Cc1nn(C)c2nc(N3CCN(Cc4nccn4C)CC3)sc12 | -8.28 |
| Cc1noc(C)c1CN1CCCC2(CCN(CC3CCCC3)C2)C1 (centres undefined) | -3.39 |
| O=S(=O)(C1CC1)N1CC[C@@H](OCC2CC2)[C@@H]1Cc1ccncc1 | -4.77 |
| Cc1nc(CCCNC(=O)C2CC(=O)N(C(C)(C)C)C2)sc1C (centres undefined) | -7.69 |
| O=C(c1ccno1)N1CCCC(c2ncncc2-c2ccncc2)C1 (centres undefined) | -9.77 |
| Cc1ccc(-n2nc(C)cc2N)nn1 | -14.8 |
